From ChEMBL document CHEMBL4823254, “Tetrahydroquinoline-Capped Histone Deacetylase 6 Inhibitor SW-101 Ameliorates Pathological Phenotypes in a Charcot-Marie-Tooth Type 2A Mouse Model” (J Med Chem, 2021)
pIC50: −log10 of the molar value. The source made the active and inactive calls. The rule behind the calls is not given here.

How the values were obtained:
Histone deacetylase 1 = Histone deacetylase 1 (Homo sapiens, UniProt Q13547)
Description: Inhibition of recombinant human HDAC1 using Ac-GAK(Ac)-AMC as substrate preincubated for 10 mins followed by substrate addition and measured after 30 mins by fluorescence-based assay

Mus musculus [1] = experiment: Neuroprotective activity in hMFN2-induced CMT2A transgenic mouse model assessed as increase in paw withdrawal latency at 20 mg/kg, ip qd administered when treated prior with compound dissolved in PBS/PEG400/Tween80/EtOH (50/35/10/5) wt% as vehicle by von Frey test; format: functional, organism-based
Histone deacetylase 2 = Histone deacetylase 2 (Homo sapiens, UniProt Q92769); experiment: Inhibition of recombinant human HDAC2 using Ac-GAK(Ac)-AMC as substrate preincubated for 10 mins followed by substrate addition and measured after 30 mins by fluorescence-based assay
Sequence of Histone deacetylase 2 (Q92769 whole entry): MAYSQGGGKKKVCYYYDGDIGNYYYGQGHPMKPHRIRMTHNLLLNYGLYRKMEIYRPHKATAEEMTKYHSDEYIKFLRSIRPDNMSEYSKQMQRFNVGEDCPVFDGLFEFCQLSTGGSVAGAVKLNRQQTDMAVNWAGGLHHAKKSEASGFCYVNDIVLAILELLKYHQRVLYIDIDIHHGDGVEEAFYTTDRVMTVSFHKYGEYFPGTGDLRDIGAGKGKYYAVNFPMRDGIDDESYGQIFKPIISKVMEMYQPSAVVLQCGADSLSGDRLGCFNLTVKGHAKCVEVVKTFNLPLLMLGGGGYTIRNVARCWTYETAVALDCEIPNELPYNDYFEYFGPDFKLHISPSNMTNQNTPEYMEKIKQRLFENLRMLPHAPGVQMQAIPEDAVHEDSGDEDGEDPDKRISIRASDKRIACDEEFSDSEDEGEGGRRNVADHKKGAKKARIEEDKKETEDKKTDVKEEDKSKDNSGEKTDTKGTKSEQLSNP

[2] = Half life in human plasma; format: ADME, cell-free
[3] = biological target: T1, Protein deacetylase HDAC6 (Mus musculus) (UniProt Q9Z2V5); experiment: In vivo inhibition of HDAC6 in wild type mouse assessed as increase in alpha-tubulin acetylation in sciatic nerve tissue at 10 to 20 mg/kg, ip measured after 48 hrs by immunoblot analysis; format: functional, organism-based; details: dose 10-20 mg/kg
T1 sequence (whole entry): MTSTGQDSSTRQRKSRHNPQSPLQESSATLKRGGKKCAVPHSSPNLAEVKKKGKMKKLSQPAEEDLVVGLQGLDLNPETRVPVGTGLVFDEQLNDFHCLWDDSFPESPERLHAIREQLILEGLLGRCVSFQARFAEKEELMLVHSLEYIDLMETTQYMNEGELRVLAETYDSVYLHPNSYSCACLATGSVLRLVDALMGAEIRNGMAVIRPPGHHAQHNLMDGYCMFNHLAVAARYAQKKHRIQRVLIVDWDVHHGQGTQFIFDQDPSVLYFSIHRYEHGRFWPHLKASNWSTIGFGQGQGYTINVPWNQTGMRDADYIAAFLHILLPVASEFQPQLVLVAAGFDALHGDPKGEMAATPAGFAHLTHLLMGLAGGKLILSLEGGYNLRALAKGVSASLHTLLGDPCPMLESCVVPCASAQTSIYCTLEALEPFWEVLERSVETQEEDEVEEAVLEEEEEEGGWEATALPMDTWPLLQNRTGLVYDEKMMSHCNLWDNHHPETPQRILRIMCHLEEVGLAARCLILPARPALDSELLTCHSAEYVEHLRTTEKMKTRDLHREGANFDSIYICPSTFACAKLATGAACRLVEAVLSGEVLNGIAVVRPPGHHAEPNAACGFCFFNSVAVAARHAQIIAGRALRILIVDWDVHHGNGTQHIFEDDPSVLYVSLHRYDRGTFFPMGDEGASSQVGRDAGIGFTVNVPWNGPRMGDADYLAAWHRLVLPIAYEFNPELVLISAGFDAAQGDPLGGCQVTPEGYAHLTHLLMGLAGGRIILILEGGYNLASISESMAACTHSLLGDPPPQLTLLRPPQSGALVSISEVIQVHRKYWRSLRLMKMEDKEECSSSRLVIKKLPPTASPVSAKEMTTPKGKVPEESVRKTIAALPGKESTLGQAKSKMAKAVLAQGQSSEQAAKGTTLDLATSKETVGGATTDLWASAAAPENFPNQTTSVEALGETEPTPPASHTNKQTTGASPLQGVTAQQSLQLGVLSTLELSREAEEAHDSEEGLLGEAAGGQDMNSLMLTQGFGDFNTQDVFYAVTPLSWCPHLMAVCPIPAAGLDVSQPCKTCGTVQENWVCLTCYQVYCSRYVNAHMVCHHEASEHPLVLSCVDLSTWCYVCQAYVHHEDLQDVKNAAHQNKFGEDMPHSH

[4] = biological target: T1, Protein deacetylase HDAC6 (Mus musculus); experiment: In vivo inhibition of HDAC6 in hMFN2-induced CMT2A transgenic mouse model assessed as increase in acetylated tubulin in distal sciatic nerve tissue at 20 mg/kg, ip qd administered for 12 weeks followed by treatment with compound dissolved in PBS/PEG400/Tween80/EtOH (50/35/10/5) wt% as vehicle by Western blot analysis; format: functional, organism-based
[5] = Genotoxicity in Salmonella typhimurium TA1537 at 5 to 100 uM in absence of liver S9 fraction by Ames test; format: toxicity; details: salmonella enterica subsp. enterica serovar typhimurium, s9, 100 µM; dose 5-100 µM
Mus musculus [6] = experiment: Neuroprotective activity in hMFN2-induced CMT2A transgenic mouse model assessed as assessed as latency to fall at 20 mg/kg, ip qd administered for 26 weeks when treated prior with compound dissolved in PBS/PEG400/Tween80/EtOH (50/35/10/5) wt% as vehicle by rotarod test; format: functional, organism-based
Mus musculus [7] = experiment: Neuroprotective activity in hMFN2-induced CMT2A transgenic mouse model assessed as increase in motor performance at 20 mg/kg, ip qd by rotarod test; format: functional, organism-based
[8] = Half life in mouse plasma; format: ADME, cell-free
[9] = Protein binding in human plasma; format: ADME, cell-free; details: read-out: PPB (converted)

Sequence of Histone deacetylase 1 (Q13547 whole entry): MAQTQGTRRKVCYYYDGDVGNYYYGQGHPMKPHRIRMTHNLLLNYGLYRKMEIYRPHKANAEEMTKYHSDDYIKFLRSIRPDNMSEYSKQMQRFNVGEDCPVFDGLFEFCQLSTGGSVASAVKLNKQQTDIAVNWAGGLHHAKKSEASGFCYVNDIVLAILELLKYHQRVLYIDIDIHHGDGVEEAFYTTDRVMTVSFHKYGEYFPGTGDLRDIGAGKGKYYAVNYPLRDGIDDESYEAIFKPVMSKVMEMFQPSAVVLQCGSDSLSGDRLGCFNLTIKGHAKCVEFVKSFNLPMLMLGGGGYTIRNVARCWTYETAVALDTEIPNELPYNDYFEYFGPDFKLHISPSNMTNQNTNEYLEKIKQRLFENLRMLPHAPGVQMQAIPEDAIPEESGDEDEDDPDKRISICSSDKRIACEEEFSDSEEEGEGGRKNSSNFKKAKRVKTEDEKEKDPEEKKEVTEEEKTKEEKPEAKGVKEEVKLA

With NC(=O)c1ccc2c(c1)CCCN2Cc1ccc(C(=O)NO)cc1 the pIC50 (Histone deacetylase 1) was 6.45, the Activity (Mus musculus [1]) was “Active” and the pIC50 (Histone deacetylase 2) was 6.85. The half-life [2] was > 6.67 h, the inhibition [3] was “inactive” and the inhibition [4] was “Active”. The Activity [5] was “Non-Toxic”, the Activity (Mus musculus [6]) was “Active” and the Activity (Mus musculus [7]) was “Active”. The half-life [8] was 2.12 h and the fraction unbound [9] was 0.142.
